From US20100021941A1, “METHODS OF IDENTIFYING MODULATORS OF UBIQUITIN LIGASES” (PROGENRA, INCORPORATED, priority 2008, published 2010)

What was measured:
[1] = molecular target: T1, E1, E2 and E3 coupled enzyme reaction (GST-E1/His6-UbcH5c/6× His-SUMO-CARP2 ligase) (Homo sapiens, UniProt P22314+P61077+Q8WZ73); assay: E3 ligase assay (autoubiquitylation) on 6× His-SUMO-UBA2 coated plates, anti-ubiquitin antibody/FITC fluorescence detection; assay type: biochemical; conditions: enzymes pre-incubated with compound 30 minutes at room temperature; reaction 60 minutes at 37° C.; 500 nM 6× His SUMO-CARP2; triplicate; FIG. 6A
T1 construct: fused on or other part: GST on E1; His6 on UbcH5c; 6x His-SUMO on CARP2; The plate is coated with 6x His-SUMO-UBA2 (yeast Rad23 residues 351-398) as capture reagent
T1 sequence (P22314 2-1058): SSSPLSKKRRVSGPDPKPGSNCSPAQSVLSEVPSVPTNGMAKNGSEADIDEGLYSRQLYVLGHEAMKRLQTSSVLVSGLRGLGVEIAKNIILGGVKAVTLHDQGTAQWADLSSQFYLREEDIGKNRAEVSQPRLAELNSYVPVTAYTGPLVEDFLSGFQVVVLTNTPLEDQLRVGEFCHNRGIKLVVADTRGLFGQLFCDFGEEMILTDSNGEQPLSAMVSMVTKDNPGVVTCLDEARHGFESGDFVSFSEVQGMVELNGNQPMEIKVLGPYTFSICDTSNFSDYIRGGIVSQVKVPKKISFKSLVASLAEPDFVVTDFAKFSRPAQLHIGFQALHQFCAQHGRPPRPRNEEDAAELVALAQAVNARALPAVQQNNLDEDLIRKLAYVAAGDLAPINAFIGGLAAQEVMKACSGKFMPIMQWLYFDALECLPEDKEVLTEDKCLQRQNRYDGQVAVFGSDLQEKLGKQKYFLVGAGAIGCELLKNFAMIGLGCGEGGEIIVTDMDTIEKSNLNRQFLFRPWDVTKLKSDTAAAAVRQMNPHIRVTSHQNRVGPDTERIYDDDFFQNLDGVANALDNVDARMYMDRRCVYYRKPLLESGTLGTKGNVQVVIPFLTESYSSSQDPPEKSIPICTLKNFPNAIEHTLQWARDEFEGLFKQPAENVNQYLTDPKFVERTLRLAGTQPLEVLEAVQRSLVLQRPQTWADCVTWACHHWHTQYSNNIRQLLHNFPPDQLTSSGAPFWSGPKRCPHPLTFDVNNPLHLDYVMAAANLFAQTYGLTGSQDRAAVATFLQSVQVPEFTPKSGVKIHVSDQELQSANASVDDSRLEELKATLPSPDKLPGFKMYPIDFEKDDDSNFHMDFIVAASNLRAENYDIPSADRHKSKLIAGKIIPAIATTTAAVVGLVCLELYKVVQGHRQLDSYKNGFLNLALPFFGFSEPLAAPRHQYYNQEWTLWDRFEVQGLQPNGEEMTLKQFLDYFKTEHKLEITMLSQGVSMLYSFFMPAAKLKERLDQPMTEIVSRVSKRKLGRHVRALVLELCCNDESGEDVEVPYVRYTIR
T1 sequence (P61077 whole entry, the tested form may be a part): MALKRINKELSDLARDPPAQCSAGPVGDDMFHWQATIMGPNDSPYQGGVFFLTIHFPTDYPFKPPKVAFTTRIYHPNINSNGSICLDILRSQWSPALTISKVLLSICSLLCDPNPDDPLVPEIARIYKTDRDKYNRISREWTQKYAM
T1 sequence (Q8WZ73 whole entry, the tested form may be a part): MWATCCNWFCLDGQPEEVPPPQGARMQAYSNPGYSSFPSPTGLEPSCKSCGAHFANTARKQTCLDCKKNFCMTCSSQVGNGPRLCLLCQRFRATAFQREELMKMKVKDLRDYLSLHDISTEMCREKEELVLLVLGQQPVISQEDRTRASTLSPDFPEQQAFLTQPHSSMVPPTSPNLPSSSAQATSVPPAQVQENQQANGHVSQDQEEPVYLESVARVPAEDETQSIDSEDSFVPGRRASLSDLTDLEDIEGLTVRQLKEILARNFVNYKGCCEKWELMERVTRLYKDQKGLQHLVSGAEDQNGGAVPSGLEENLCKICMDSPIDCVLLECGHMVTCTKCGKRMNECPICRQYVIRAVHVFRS
Description: Medium binding plates (Costar, USA) were coated with 100 μl of 0.1 mg/ml solution of 6× His-SUMO-UBA2 overnight at 4° C. The plates were blocked with 200 μl of 3% BSA in 1× phosphate buffered saline (1× PBS, pH 7.4) for 3 hours at 4° C. and washed with 1× PBS three times. E3 reactions were carried out as follows. For IC50 experiments, various concentrations of NEM, iodoacetamide, and ubistatin A were added to individual wells in triplicate. Controls contained 5 μl of 10% DMSO or 50 mM NEM. The compounds were supplemented with 20 μl of enzyme mixture containing GST-E1 (10 nM)/His6-UbcH5c (100 nM), 6× His SUMO-CARP2 (500 nM) prepared in assay buffer (50 mM Tris-HCl, pH8.0, 2 mM MgCl2, 0.1 mM DTT) and incubated at room temperature for 30 minutes. A pFastBac-GST-E1 vector was expressed and purified from insect cells according to published methods. Beaudenon and Huibregtse, Methods Enzymol, 398: 3-8 9 (2005). A PCR product encoding UbcH5c was generated using the primers 5′-[…]-3′ (SEQ ID NO:24) and 5′-[…]-3′ (SEQ ID NO:25) and human UbcH5c cDNA as the template. The PCR fragment was digested with BsaI and BamHI, and then ligated into pET24D (Novagen) generating 6× His-UbcH5c. […] Plates were washed six times with 1× PBS and readings were taken using the fluorescence plate reader with excitation and emission wavelengths of 485 nm and 535 nm, respectively.

[2] = test system: E3 ubiquitylation reaction containing E1, E2 (UbcH5c) and E3; assay: E3 ligase inhibition assay using 5′-IAF-UBA1 detection and anti-ubiquitin immunoblot; assay type: biochemical, human; conditions: pre-incubated with various concentrations for 30 minutes at room temperature before adding ubiquitin and ATP; FIGS. 9A-D
Description: E3 ligase reactions contained 10 nM GST-Praja1, 500 nM 6× His-SUMO-CARP2 or 500 nM 6× His-SUMO-MuRF1 as E3s, 50 nM E1, 150 nM UbcH5c (E2), 500 ng Ubiquitin, 2 mM ATP, 50 mM Tris-HCl pH8.0, 5 mM MgCl2, 0.1 mM DTT. For measuring SCF^Atrogin-1 E3 ligase activity, the reaction was assembled essentially as described above except that the E3 ligase contained 6× His-SUMO-Atrogin-1, Cullin-1 (“Cul1”), Roc-1 (“Rbx-1 ”) and 6× His-Skp1 (250 nM each). In order to obtain large amounts of the Cul1-Rbx1 complex for the SCF complex, we used a procedure to overexpress the Cul1-Rbx1 complex in E. coli. Zheng, et al., Nature, 416(6882):703-9 (2002). The Cull gene was split into two halves (residues 1-410 and residues 411-776) and co-expressed with GST-tagged Rbx1 as three different polypeptide chains. A PCR product encoding Skp1 was generated using the primers 5′-[…]-3′ (SEQ ID NO:28) and 5′-[…]-3′ (SEQ ID NO:29) and human Skp1 cDNA as the template. […]
For inhibition assays, reactions containing E1, E2, and E3 were pre-incubated with various concentrations of NEM and ubistatin A for 30 minutes at room temperature before initiating the reaction by adding ubiquitin and ATP. […] The wells were washed with 1× PBS and readings were taken using a fluorescence plate reader with excitation and emission wavelengths of 485 nm and 535nm, respectively. […]

SMILES | IC50 [1] [µM] | inhibition of the E3 ubiquitylation assay [2]
CCN1C(=O)C=CC1=O [NEM] | 34.2 | inhibited
O=C(Nc1ccc(/C=C/c2ccc(NC(=O)c3cc(S(=O)(=O)O)c4cccnc4c3O)cc2S(=O)(=O)O)c(S(=O)(=O)O)c1)c1cc(S(=O)(=O)O)c2cccnc2c1O [ubistatinA] | 0.421 | inhibited
